Experimental findings from PubChem BioAssay AID212 (DTP/NCI, 2004) are described below.

Several values for one entry are separate records, joined by “and”; a condition that tells them apart may be missing. Identical values can stand only once. Results filed as inconclusive are left out.

For the assay, the system named is BDF1 mice, colon carcinoma 38 sc, T/C %. The experiment in a line: NCI In Vivo Anticancer Drug Screen. Data for tumor model Colon Carcinoma 38 (subcutaneous) in B6D2F1 (BDF1) mice. The note with it: endpoint: median tumor weight (est.), higher = larger tumour. In short, it runs like this:
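Ratio of survival or tumor size, compound-treated animals relative to vehicle controls, in tumor-bearing mice.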

Where [1] appears, read: dose: 12.5 mg/kg/injection, schedule: Q07DX002 (ip), vehicle: saline.
Setting [2] is: dose: 25.0 mg/kg/injection, schedule: Q07DX002 (ip), vehicle: saline.
The mark [3] stands for this setting: dose: 50.0 mg/kg/injection, schedule: Q07DX002 (ip), vehicle: saline.
Setting [4] is: dose: 100.0 mg/kg/injection, schedule: Q07DX002 (ip), vehicle: saline.
[5] abbreviates: dose: 50.0 mg/kg/injection, schedule: Q07DX002 (ip), vehicle: saline with Tween-80.
Setting [6] is: dose: 100.0 mg/kg/injection, schedule: Q07DX002 (ip), vehicle: saline with Tween-80.
The mark [7] stands for this setting: dose: 200.0 mg/kg/injection, schedule: Q07DX002 (ip), vehicle: saline with Tween-80.
[8] abbreviates: dose: 400.0 mg/kg/injection, schedule: Q07DX002 (ip), vehicle: saline with Tween-80.
[9] abbreviates: dose: 25.0 mg/kg/injection, schedule: Q07DX002 (ip), vehicle: saline with Tween-80.
[10] abbreviates: dose: 6.25 mg/kg/injection, schedule: Q07DX003 (ip), vehicle: saline.
[11] abbreviates: dose: 12.5 mg/kg/injection, schedule: Q07DX003 (ip), vehicle: saline.
The mark [12] stands for this setting: dose: 25.0 mg/kg/injection, schedule: Q07DX003 (ip), vehicle: saline.
The mark [13] stands for this setting: dose: 50.0 mg/kg/injection, schedule: Q07DX003 (ip), vehicle: saline.
[14] abbreviates: dose: 200.0 mg/kg/injection, schedule: Q07DX003 (ip), vehicle: saline.
Where [15] appears, read: dose: 6.25 mg/kg/injection, schedule: Q07DX002 (ip), vehicle: saline.
Where [16] appears, read: dose: 100.0 mg/kg/injection, schedule: Q07DX003 (ip), vehicle: saline.
The mark [17] stands for this setting: dose: 12.5 mg/kg/injection, schedule: Q07DX002 (ip), vehicle: saline with Tween-80.

Turning to `Cn1/c2cc/c1=C(\c1ccc(S(=O)(=O)O)cc1)c1ccc([n-]1)/C(c1ccc(S(=O)(=O)O)cc1)=c1/cc/c([nH]1)=C(\c1ccc(S(=O)(=O)O)cc1)c1ccc([n-]1)/C=2c1ccc(S(=O)(=O)O)cc1.O.O=S(=O)(O)C(F)(F)F.[Cu+2]`, the T/C by setting is: under setting [1], 79 % of control; under setting [2], 70 % of control; under setting [3], 77 % of control; under setting [4], 89 % of control; (dose: 200.0 mg/kg/injection, schedule: Q07DX002 (ip), vehicle: saline) 80 % of control.

Consider `C[C@]12CC[C@@H]3c4ccc(OC(=O)Cc5ccc(N(CCCl)CCCl)cc5)cc4CC[C@H]3[C@@H]1CC[C@@H]2OC(=O)Cc1ccc(N(CCCl)CCCl)cc1`, for which the T/C under setting [5] was 185 % of control; the T/C under setting [6] is 176 % of control; the T/C under setting [7] was 173 % of control and 201 % of control; the T/C under setting [8] was 256 % of control; the T/C (dose: 800.0 mg/kg/injection, schedule: Q07DX002 (ip), vehicle: saline with Tween-80) was 195 % of control.

Take `CCCCCCCCCCCCSC1=C(Cl)C(=O)C(OC)=C(OC)C1=O`: the T/C was 110 % of control and 97 % of control under setting [9]; 91 % of control and 96 % of control under setting [5]; 104 % of control under setting [7].

Turning to `CCC(=O)N(C)[C@@H](C)C(=O)O[C@H]1CC(=O)N(C)c2cc(cc(OC)c2Cl)C/C(C)=C/C=C[C@@H](OC)[C@@]2(O)C[C@H](OC(=O)N2)[C@@H](C)[C@@H]2O[C@@]12C`, the T/C runs as follows: (dose: 7.5 micrograms/kg/injection, schedule: Q07DX002 (ip), vehicle: saline + alcohol) 62 % of control; (dose: 30.0 micrograms/kg/injection, schedule: Q07DX002 (ip), vehicle: saline + alcohol) 84 % of control; (dose: 120.0 micrograms/kg/injection, schedule: Q07DX002 (ip), vehicle: saline + alcohol) 108 % of control.

In the case of `CNc1nc(N(C)C)nc(N(C)C)n1`, the T/C was 114 % of control (dose: 3.12 mg/kg/injection, schedule: Q07DX003 (ip), vehicle: saline); 95 % of control under setting [10]; 89 % of control (dose: 6.25 mg/kg/injection, schedule: Q07DX003 (ip), vehicle: water); 121 % of control under setting [11]; 104 % of control (dose: 12.5 mg/kg/injection, schedule: Q07DX003 (ip), vehicle: water); 121 % of control under setting [12]. The T/C is 61 % of control (dose: 25.0 mg/kg/injection, schedule: Q07DX003 (ip), vehicle: water); 114 % of control under setting [13]; 158 % of control (dose: 50.0 mg/kg/injection, schedule: Q07DX003 (ip), vehicle: water); 108 % of control (dose: 100.0 mg/kg/injection, schedule: Q07DX003 (ip), vehicle: water); 32 % of control under setting [14]; 22 % of control (dose: 200.0 mg/kg/injection, schedule: Q07DX003 (ip), vehicle: water).

In the case of `c1cc2n(n1)CCN2`, the T/C runs as follows: under setting [15], 76 % of control; under setting [11], 110 % of control; (dose: 25.0 mg/kg/injection, schedule: Q01DX005 (ip), vehicle: saline) 86 % of control; (dose: 25.0 mg/kg/injection, schedule: Q04DX003 (ip), vehicle: saline) 84 % of control; under setting [2], 94 % of control; under setting [12], 92 % of control. In addition, the T/C was 36 % of control (dose: 50.0 mg/kg/injection, schedule: Q01DX005 (ip), vehicle: saline); 166 % of control under setting [3]; 74 % of control under setting [13]; 44 % of control (dose: 100.0 mg/kg/injection, schedule: Q01DX005 (ip), vehicle: saline); 42 % of control (dose: 100.0 mg/kg/injection, schedule: Q04DX003 (ip), vehicle: saline); 65 % of control under setting [16]. The T/C by setting is: (dose: 200.0 mg/kg/injection, schedule: Q01DX005 (ip), vehicle: saline) 47 % of control; (dose: 200.0 mg/kg/injection, schedule: Q04DX003 (ip), vehicle: saline) 97 % of control; under setting [14], 66 % of control; (dose: 400.0 mg/kg/injection, schedule: Q04DX003 (ip), vehicle: saline) 75 % of control; (dose: 400.0 mg/kg/injection, schedule: Q07DX003 (ip), vehicle: saline) 56 % of control.

Consider `COc1cccc2c1C(CO)N1C(C#N)C3CC(C(=O)O)C(C1C2)N3C` (stereo unspecified), for which the T/C is 71 % of control under setting [15]; 45 % of control under setting [1]; 108 % of control under setting [2]; 80 % of control under setting [3]; 66 % of control under setting [4].

As to `CC(C)=CCC/C(C)=C/COc1ccc(/C=C2/C(=O)N(O)[C@@H](C)C(=O)N2O)cc1`, the T/C runs as follows: under setting [15], 262 % of control; under setting [1], 202 % of control; under setting [2], 178 % of control; under setting [3], 154 % of control; under setting [4], 154 % of control.

In the case of `CN(C)P(=O)(Oc1ccccc1)N(C)C`, the T/C reads like this: under setting [5], 68 % of control; under setting [6], 62 % of control; under setting [7], 86 % of control.

Regarding `BrC1c2cccc3cccc(c23)C1Br` (stereo unspecified), the T/C runs as follows: under setting [17], 103 % of control; under setting [9], 117 % of control and 120 % of control; under setting [6], 97 % of control and 107 % of control; under setting [7], 108 % of control and 111 % of control; under setting [8], 85 % of control.

Take `N#CC(=C1C=CC(=NO)C=C1)c1ccc(Cl)cc1`: the T/C is 72 % of control under setting [17], 100 % of control under setting [9], 103 % of control under setting [6] and 46 % of control under setting [8].

For the compound `CC(/C=N/N=C(N)N)=N\N=C(N)N`, the T/C by setting is: under setting [10], 66 % of control; under setting [11], 66 % of control; under setting [12], 79 % of control; under setting [16], 115 % of control.
